Like-named read-outs stand apart in the source and are kept apart here.
Columns and labels:
T-tropic HIV = conditions: patients dual tropic or with only T-tropic virus; cited from earlier work
[1] = system: HIV-1 gp160 (HXB2 strain) mediated cell/cell fusion; assay: Cell/cell fusion assay (HOS hCXCR4/hCCR5/hCD4/pHIV-LTR-luciferase cells with HEK-293 cells expressing HIV-1 tat, rev, gp160), luciferase readout; format: cell-based; conditions: Homo sapiens, HEK293, 24 h, read-out: Fusion assay (pIC50) (converted)
Description: The complete coding sequences of HIV-1 tat (GenBank Accession No. X07861) and rev (GenBank Accession No. M34378) were cloned into pcDNA3.1 expression vectors containing G418 and hygromycin resistance genes, respectively. The complete coding sequence of the HIV-1 (HXB2 strain) gp160 envelope gene (nucleotide bases 6225-8795 of GenBank Accession No. K03455) was cloned into plasmid pCRII-TOPO. The three HIV genes were additionally inserted into the baculovirus shuttle vector, pFastBacMam1, under the transcriptional control of the CMV promoter. A construction of the pHIV-1 LTR containing mutated NFkB sequences linked to the luciferase reporter gene was prepared by digesting pcDNA3.1, containing the G418 resistance gene, with Nru I and Bam HI to remove the CMV promoter. LTR-luc was then cloned into the Nru I/Bam HI sites of the plasmid vector. Plasmid preparations were performed after the plasmids were amplified in Escherichia coli strain DH5-alpha. The fidelity of the inserted sequences was confirmed by double-strand nucleotide sequencing using an ABI Prism Model 377 automated sequencer.
Recombinant BacMam baculoviruses were constructed from pFastBacMam shuttle plasmids by using the bacterial cell-based Bac-to-Bac system. Viruses were propagated in Sf9 (Spodoptera frugiperda) cells cultured in Hink's TNM-FH Insect media supplemented with 10% (v/v) fetal bovine serum and 0.1% (v/v) pluronic F-68 according to established protocols.
Human osteosarcoma (HOS) cells that naturally express human CXCR4 were transfected with human CCR5, human CD4 and the pHIV-LTR-luciferase plasmid using FuGENE 6 transfection reagent. Single cells were isolated and grown under selection condition in order to generate a stable HOS (hCXCR4/hCCR5/hCD4/pHIV-LTR-luciferase) clonal cell line. The cells were maintained in Dulbeccos modified Eagles media supplemented with 10% fetal calf serum (FCS), G418 (400 ug/ml), puromycin (1 ug/ml), mycophenolic acid (40 ug/ml), xanthine (250 ug/ml) and hypoxanthine (13.5 ug/ml) to maintain a selection pressure for cells expressing the LTR-luciferase, hCCR5 and hCD4, respectively. Human embryonic kidney (HEK-293) cells stably transfected to express the human macrophage scavenging receptor (Class A, type 1; GenBank Accession No. D90187), were maintained in DMEM/F-12 media (1:1) supplemented with 10% FCS and 1.5 ug/ml puromycin. The expression of this receptor by the HEK-293 cells enhances their ability to stick to tissue culture treated plasticware.
HEK-293 cells were harvested using enzyme-free cell dissociation buffer. The cells were resuspended in DMEM/F-12 media supplemented with 10% FCS and 1.5 ug/ml and counted. Tranductions were performed by direct addition of BacMam baculovirus containing insect cell media to cells. The cells were simultaneously transduced with BacMam baculovirus expressing HIV-1 tat, HIV-1 rev and HIV-1 gp160 (from the HXB2 HIV strain). Routinely an MOI of 10 of each virus was added to the media containing the cells. 2 mM butyric acid was also added to the cells at this stage to increase protein expression in transduced cells. The cells were subsequently mixed and seeded into a flask at 30 million cells per T225. The cells were incubated at 37° C., 5% CO2, 95% humidity for 24 h to allow for protein expression.
HEK and HOS cells were harvested in DMEM/F-12 media containing 2% FCS and DMEM media containing 2% FCS, respectively, with no selection agents added. Compounds were plated as 1 ul spots in 100% DMSO on a 96-well CulturPlate plates. HOS cells (50 ul) were added first to the wells, followed immediately by the HEK cells (50 ul). The final concentration of each cell type was 20,000 cells per well. Following these additions, the cells were returned to a tissue culture incubator (37° C.; 5% CO2/95% air) for an additional 24 h.
Following the 24 h incubation, total cellular luciferase activity was measured using the LucLite Plus assay kit (Packard, Meridien, Conn.). […]

[2] = Compound cytotoxicity in HOS cells in the absence of virus (CellTiter-Glo); format: cell-based; conditions: human, no virus, read-out: Cytotox (pIC50) (converted)
Description: Compounds were profiled against two HIV-1 viruses, the M-tropic (CCR5 utilizing) Ba-L strain and the T-tropic (CXCR4 utilizing) IIIB strain. Both viruses were propagated in human peripheral blood lymphocytes. Compounds were tested for there ability to block infection of the HOS cell line (expressing hCXCR4/hCCR5/hCD4/pHIV-LTR-luciferase) by either HIV-1 Ba-L or HIV-1 IIIB. Compound cytotoxicity was also examined in the absence of virus addition.
HOS cells (expressing hCXCR4/hCCR5/hCD4/pHIV-LTR-luciferase) were harvested and diluted in Dulbeccos modified Eagles media supplemented with 2% FCS and non-essential amino acid to a concentration of 60,000 cells/ml. The cells were plated into 96-well plates (100 ul per well) and the plates were placed in a tissue culture incubator (37° C.; 5% CO2/95% air) for a period of 24 h.
Subsequently, 50 ul of the desired drug solution (4 times the final concentration) was added to each well and the plates were returned to the tissue culture incubator (37° C.; 5% CO2/95% air) for 1 h. Following this incubation 50 ul of diluted virus was added to each well (approximately 2 million RLU per well of virus). The plates were returned to the tissue culture incubator (37° C.; 5% CO2/95% air) and were incubated for a further 96 h.
Following this incubation the endpoint for the virally infected cultures was quantified following addition of Steady-Glo Luciferase assay system reagent (Promega, Madison, Wis.). Cell viability or non-infected cultures was measured using a CellTiter-Glo luminescent cell viability assay system (Promega, Madison, Wis.). All luminescent readouts are performed on a Topcount luminescence detector (Packard, Meridien, Conn.).

HIV-1 IIIB = assay: HOS HIV-1 infectivity assay; format: cell-based
Outline: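 Blockade of infection is measured in HOS cells carrying hCD4, hCXCR4, hCCR5 and an HIV-LTR-driven luciferase, using virus grown in human peripheral blood lymphocytes. After 96 h, Steady-Glo luminescence reports infection, while CellTiter-Glo gauges cytotoxicity without virus.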

CXCR4 receptor = target: T1, CXCR4 receptor (Homo sapiens, UniProt P61073); assay: Functional FLIPR assay (block of SDF-1 alpha induced [Ca2+]i change); format: cell-based; conditions: HEK-293 cells, human CXCR4 BacMam and Gqi5 BacMam, read-out: Functional assay (pIC50) (converted)
T1 construct: expressed in transfected cells; host or cells: HEK-293 cells (stably expressing human macrophage scavenger receptor) transduced with human CXCR4 BacMam and Gqi5 BacMam
T1 sequence (P61073 whole entry): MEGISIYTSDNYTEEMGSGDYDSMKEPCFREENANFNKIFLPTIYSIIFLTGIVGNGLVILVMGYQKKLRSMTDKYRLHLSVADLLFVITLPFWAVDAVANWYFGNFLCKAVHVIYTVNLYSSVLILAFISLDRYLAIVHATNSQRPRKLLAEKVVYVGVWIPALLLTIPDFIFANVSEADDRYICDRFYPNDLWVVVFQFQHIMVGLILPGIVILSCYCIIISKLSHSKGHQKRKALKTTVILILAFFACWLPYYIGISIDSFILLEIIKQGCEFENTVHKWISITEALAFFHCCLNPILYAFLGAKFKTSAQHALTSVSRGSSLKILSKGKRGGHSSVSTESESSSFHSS
Description: Human embryonic kidney (HEK-293) cells were maintained and harvested as described above. Cells were plated in 96-well, black clear bottom, poly-lysine coated plates at a concentration of 40,000 cells per well in a final volume of 100 ul containing human CXCR4BacMam (MOI=25) and Gqi5 BacMam (MOI=12.5). The cells were incubated at 37° C., 5% CO2, 95% humidity for 24 h to allow for protein expression.
After the required incubation time the cells were washed once with 50 ul of fresh serum-free DMEM/F12 media containing probenicid. 50 ul of dye solution was then added to the cells (Calcium Plus Assay Kit Dye; Molecular Devices) was dissolved in 200 ml of the above probenicid/BSA containing media and incubated for 1 h. Cell plates were transferred to a Fluorometric Imaging Plate Reader (FLIPR). Upon addition the effect of the compounds on the change in [Ca^2+]i was examined to determine if the compounds were agonists or antagonists (ability to block SDF-1 alpha activity) at the CXCR4 receptor. IC50 values are determined and pKb values are calculated using the Leff and Dougall equation: KB═IC50/((2+([agonist]/EC50̂b)̂1/b−1) Where IC50 is that defined by the antagonist concentration-response curve [agonist)] is the EC80 concentration of agonist used EC50 is that defined by the agonist concentration-response curve b is the slope of the agonist concentration-response curve.

[3] = Human immunodeficiency virus 1, IIIB, as determined by the infectivity assay, strain not stated in Table 2, read-out: Activity Level
[4] = Human immunodeficiency virus 1, T-tropic (CXCR4 utilizing) IIIB strain, HOS cells, 96 h, read-out: HOS (3B)

SMILES | T-tropic HIV viral load (T-tropic HIV) | IC50 [1] | IC50 at 96 h [2] | IC50 (HIV-1 IIIB; [3]) | IC50 (HIV-1 IIIB; [4]) | IC50 (CXCR4 receptor)
c1cc(CN2CCCNCCNCCCNCC2)ccc1CN1CCCNCCNCCCNCC1 [AMD-3100] | significantly reduce T-tropic HIV viral load |  |  |  |  | 
CN(Cc1nc2ccccc2n1Cc1ccc(CN)cc1)C1CCCc2cccnc21 (centres unmarked) [Example 14, N-[(1-{[4-(Aminomethyl)phenyl]methyl}-1H-benzimidazol-2-yl)methyl]-N-methyl-5,6,7,8-tetrahydro-8-quinolinamine] |  | 708 nM | > 100000 nM | 500 to 10000 nM | 985 nM | 282 nM
CN(C)CCCn1c(CN(C)C2CCCc3cccnc32)nc2ccccc21 (centres unmarked) [Example 15c, N-({1-[3-(Dimethylamino)propyl]-1H-benzimidazol-2-yl}methyl)-N-methyl-5,6,7,8-tetrahydro-8-quinolinamine] |  | 16.6 nM | > 100000 nM | < 100 nM | 23 nM | 17 nM
CN(Cc1nc2ccccc2n1CCCNCc1ccccn1)C1CCCc2cccnc21 (centres unmarked) [Example 16, N-Methyl-N-[(1-{3-[(2-pyridinylmethyl)amino]propyl}-1H-benzimidazol-2-yl)methyl]-5,6,7,8-tetrahydro-8-quinolinamine] |  | 148 nM | > 100000 nM | 100 to 500 nM | 121 nM | 58.9 nM
CN(C)CCCCCn1c(CN(C)C2CCCc3cccnc32)nc2ccccc21 (centres unmarked) [Example 17, N-({1-[5-(Dimethylamino)pentyl]-1H-benzimidazol-2-yl}methyl)-N-methyl-5,6,7,8-tetrahydro-8-quinolinamine] |  | 324 nM | > 100000 nM | 100 to 500 nM | 251 nM | 204 nM
NCCCn1c(CNC2CCCc3cccnc32)nc2ccccc21 (centres unmarked) [Example 19, N-{[1-(3-Aminopropyl)-1H-benzimidazol-2-yl]methyl}-5,6,7,8-tetrahydro-8-quinolinamine] |  | 513 nM | > 100000 nM | < 100 nM | 90 nM | 234 nM
CCN(Cc1nc2ccccc2n1CCCN)C1CCCc2cccnc21 (centres unmarked) [Example 20, N-{[1-(3-Aminopropyl)-1H-benzimidazol-2-yl]methyl}-N-ethyl-5,6,7,8-tetrahydro-8-quinolinamine] |  | 56.2 nM | > 100000 nM | < 100 nM | 21 nM | 28.2 nM
NCCCn1c(CN(Cc2ccccc2)C2CCCc3cccnc32)nc2ccccc21 (centres unmarked) [Example 21, N-{[1-(3-Aminopropyl)-1H-benzimidazol-2-yl]methyl}-N-(phenylmethyl)-5,6,7,8-tetrahydro-8-quinolinamine] |  | 1320 nM | > 100000 nM | 500 to 10000 nM | 595 nM | 288 nM
CC(C)CCN(Cc1nc2ccccc2n1CCCN)C1CCCc2cccnc21 (centres unmarked) [Example 22, N-{[1-(3-Aminopropyl)-1H-benzimidazol-2-yl]methyl}-N-(3-methylbutyl)-5,6,7,8-tetrahydro-8-quinolinamine] |  | 158 nM | > 100000 nM | 100 to 500 nM | 113 nM | 56.2 nM
CN1CCCCC1CCn1c(CN(C)C2CCCc3cccnc32)nc2ccccc21 (centres unmarked) [Example 23e, N-Methyl-N-({1-[2-(1-methyl-2-piperidinyl)ethyl]-1H-benzimidazol-2-yl}methyl)-5,6,7,8-tetrahydro-8-quinolinamine] |  | 38 nM | > 100000 nM | < 100 nM | 33 nM | 17.4 nM
CN(C)C/C=C\Cn1c(CN(C)C2CCCc3cccnc32)nc2ccccc21 (centres unmarked) [Example 24, N-({1-[(2Z)-4-(Dimethylamino)-2-buten-1-yl]-1H-benzimidazol-2-yl}methyl)-N-methyl-5,6,7,8-tetrahydro-8-quinolinamine] |  | 20.4 nM | > 100000 nM | < 100 nM | 25 nM | 15.5 nM
CN1CCOC(Cn2c(CN(C)C3CCCc4cccnc43)nc3ccccc32)C1 (centres unmarked) [Example 25, N-Methyl-N-({1-[(4-methyl-2-morpholinyl)methyl]-1H-benzimidazol-2-yl}methyl)-5,6,7,8-tetrahydro-8-quinolinamine] |  | 38 nM | > 100000 nM | 100 to 500 nM | 185 nM | 29.5 nM

— patent US20080096861A1, “Chemical Compounds” (SMITHKLINE BEECHAM CORPORATION, priority 2004, published 2008)
